The subject of one assay is Prostate Cancer: DU145. Kind of assay: pRB-780 immunoblot, DU145. Format: cell-based. The following applies: WB: P-RB-780. Here is the method:
(§1) Table 2: Experimental Procedures: sensitivity to CDK6 kinase activity inhibition was tested by incubating different cell lines in the presence of CDK6 inhibitor GD007/PBS for either 24 hours for detecting the status of pRB-780 phosphorylation, or 5 days for determining the effect of GD007 on cell proliferation. (1) By immunoblotting (WB), we will detect phospho-pRB-S^780, one of the substrates of CDK6 kinase; (2) By using FACS analysis, we will stain treated cells with Propidium Iodide (PI), a commonly used fluorescent intercalator, to measure the subpopulation of cell cycle to reveal any impact of CDK6 inhibition on cell proliferation; (3) cell numbers will be counted using hemocytometer.
(In general: Immunoblotting shows a protein as a band on a membrane.)

Assay [1] can be described thus: Fat pad mass and body weight of WT mice on normal chow diet. Format: in vivo. The following applies: WT (B6) mice, NCD. The method, then:
FIGS. 9A and 9B are images showing a close view of the iWAT (FIG. 9A) and eWAT (FIG. 9B) and mass of fat pads from mice treated with GD or PBS, as indicated. The mass of various fat pads was normalized to body weight of mice on NCD at the end of experiments. Data shown are mean±S.D. (n=8 for each group), *p<0.05, t-test, GD vs PBS.
FIG. 9D is a graph showing body weight of age-matched female WT mice on NCD over 27-day observation period. GD/PBS commenced by gavage daily for 21 days at 200 mg/kg/day at age of 6-weeks-old. Body weight shown are mean±S.D. (n=8 for each group), *p<0.05, t-test, GD vs PBS.

For assay [2], the system named is mouse KO-MEFs (CDK6^−/− MEFs). Kind of assay: Cell cycle and cell number, CDK6-/- MEFs (KO-MEFs). In kind it is cell-based. Here is the method:
FIG. 6E is a series of charts showing representative cell cycle profiles of mouse KO-MEFs treated with a vehicle (V), PD (0.5 μM), or compound GD at 1, 5, 10, and 20 μM for 6 days.
FIG. 6F is a histogram summarizing the cell cycle distribution in FIG. 6E. Data shown are mean±S.D. (n=6); *P<0.05 vs its vehicle control, t-test.
FIG. 6G is a bar graph summarizing the cell numbers of KO-MEFs treated with PD (0.5 μM) or compound GD at different doses for 6 days. Data shown are mean±S.D. (n=6); *P<0.05 vs its vehicle control, t-test.
(§2) HCl salt of 6-acetyl-5-methyl-2-((4-(piperazin-1-ylmethyl)thiazol-2-yl)amino)pyrido[2,3-d]pyrimidin-7(8H)-one (Compound GD) prepared in Example 1 was examined for its inhibitory activity in cancer cell lines and WT and CDK6^−/− mouse embryonic fibroblasts (MEFs) and stromal vascular fractions (SVFs). MEFs and SVFs are enriched with mesenchymal stem cells (MSC) and pre-adipocytes which can differentiate into a variety of cell types, including adipocytes.

The subject of the next assay is mouse WT SVFs. Kind of assay: Cell number, WT-SVFs. The following applies: 6 days; GD 0.1-10 μM. In kind it is cell-based. The method, then:
FIG. 7A is a bar graph showing the cell numbers of WT-SVFs treated with LEE (10 μM) or compound GD at 0.1, 0.5, 1.0, 5.0, and 10 μM for 6 days. Data shown are mean±S.D. (n=6); *P<0.05 vs its vehicle control, t-test.
as §2

Assay [3] has as its system phosphorylated pRB at SER-780 in HPAC-1 cells. Kind of assay: Immunoblot of phosphorylated pRB (SER-780) and PI staining, HPAC-1. In kind it is cell-based. The method, then:
FIG. 5D is an image of a representative immunoblot showing the levels of phosphorylated pRB at SER-780 in HPAC-1 cells following treatment of these cells with a vehicle, PD, or compound GD for 24 hours. Tubulin was used as loading control.
as §1

Assay [4] has as its system phosphorylated pRB at SER-780 in HELA cells. Kind of assay: Immunoblot of phosphorylated pRB (SER-780), HELA. In kind it is cell-based. The method, then: FIG. 5E is an image of a representative immunoblot showing the levels of phosphorylated pRB at SER-780 in HELA cells following treatment of these cells with a vehicle, PD, or compound GD for 24 hours. Tubulin was used as loading control.
as §1

The subject of the next assay is Breast Cancer: MCF-7. Kind of assay: PI staining and pRB-780 immunoblot, MCF-7. In kind it is cell-based. The following applies: PI staining and WB: P-RB-780. The method, then:
as §1

Assay [5] deals with phosphorylated pRB at SER-780 in U251 cells. As to the kind of experiment: Immunoblot of phosphorylated pRB (SER-780), U251. Format: cell-based. The method, then: FIG. 5B is an image of a representative immunoblot showing the levels of phosphorylated pRB at SER-780 in U251 cells following treatment of these cells with a vehicle, PD, or compound GD for 24 hours. Tubulin was used as loading control.
as §1

For assay [6], the system named is differentiated SVF cells (beige cell formation). As to the kind of experiment: Oil Red O staining of differentiated SVF cells with BAT inducers. The following applies: GD 5 μM, FIG. 8B. Format: cell-based. Here is the method: FIG. 8B is an image of Oil Red O staining of differentiated SVF cells treated with a vehicle or compound GD (5 μM) in the presence of brown adipose tissue (BAT) inducers. Scale bar: 100 μM
Beige cells are associated with protection against obesity and metabolic syndrome (WO 2017/161253). Accordingly, compound GD and related compounds of the invention can be used for treating obesity and related metabolic diseases.

Assay [7] relates to phosphorylated pRB at SER-780 in U87 cells. As to the kind of experiment: Immunoblot of phosphorylated pRB (SER-780), U87. Format: cell-based, human. The method, then: FIG. 5C is an image of a representative immunoblot showing the levels of phosphorylated pRB at SER-780 in U87 cells following treatment of these cells with a vehicle, PD, or compound GD for 24 hours. Tubulin was used as loading control.
as §1

The mark [8] stands for this setting: 200 mg/kg/day for 21 days, normalized to body weight.

“Also recorded” adds a separate entry of the source.

On to `CC(=O)c1c(C)c2cnc(Nc3nc(CN4CCNCC4)cs3)nc2[nH]c1=O` [Compound GD, 6-acetyl-5-methyl-2-((4-(piperazin-1-ylmethyl)thiazol-2-yl)amino)pyrido[2,3-d]pyrimidin-7(8H)-one], for which the “Compound GD Efficacy” value was “No” in the assay on Prostate Cancer: DU145; “Efficacious” in assay [3] (Pancreas Cancer: HPAC, WB and PI staining); “Efficacious” in assay [4] (Cervical Cancer: Hela, WB: P-RB-780); “No” in the assay on Breast Cancer: MCF-7; “Efficacious” in [5] (Brain Tumor: U251, WB: P-RB-780); “Efficacious” in [7] (Brain Tumor: U87 human primary glioblastoma cell line, WB: P-RB-780). Moreover, the “body weight, most significant reduction compared to PBS treated mice” value in [1] (200 mg/kg/day) was found to be 7.1 % reduction. In addition, the “fat pad mass vs PBS-treated mice” value in [1] (200 mg/kg/day by gavage for 21 days, 200 mg/kg/day) was “dramatically and significantly decreased; also recorded: reduced fat mass”. The “fat pad mass, eWAT, reduction vs PBS-treated mice” value in [1] (setting [8]) is recorded as roughly 2.0 fold reduction. The “fat pad mass, iWAT, reduction vs PBS-treated mice” value in assay [1] (setting [8]) is reported as roughly 1.42 fold reduction. The “proliferation of CDK6−/− MEFs” value in assay [2] (6 days, GD 1-20 μM, PD 0.5 μM) was “little effect”. For the same molecule, the “preference for CDK6 over CDK4” value in assay [2] (concluded from WT versus CDK6−/− MEFs and SVFs) is “preferentially inhibits CDK6 over CDK4”. In addition, the “proliferation of mouse WT SVFs” value in the assay with mouse WT SVFs is “inhibited proliferation”. Further, the pRB phosphorylation entry was “inhibits pRB phosphorylation” in assay [3] (pancreas adenocarcinoma (HPAC-1), 24 hours); “inhibits pRB phosphorylation” in [4] (cervical cancer cell line (Hela cells), 24 hours); “inhibits pRB phosphorylation” in [5] (glioblastoma cell line U251, 24 hours); “inhibits pRB phosphorylation” in assay [7] (glioblastoma cell line U87, 24 hours). Besides, in [6], the beige cell formation entry was “induced beige cell formation”.
